Assay results reported in patent publication US20240181005A1, “COMPOSITIONS, SYSTEMS, AND METHODS FOR GENERATING GENE-EDITED CELLS” (CellScript, LLC, priority 2020, published 2024).

Experiments:
[1] = tested on: HSPCs; assay: Innate immune, transcriptional and toxicity response of HSPCs to the mRNAs during gene editing
[2] = tested on: NK cells (CD3-CD56^+) differentiated from XMEN CD34^+ HSPCs; assay: In vitro NK cell differentiation from gene-edited CD34+ cells: NKG2D expression and TI; assay type: cell-based, human
Excerpt: (B) Dot plot showing the gating for NK cells (CD3-CD56+) and NKG2D expression after 35 days of in vitro NK cell differentiation from CD34+ cells; histogram on the right showing the percentage of CD34-derived NK cells in each condition (n=2-8 independent experiments). (C) NKG2D expression and (D) targeted integration in NK cells at day 35 of in vitro differentiation (n=2-8 independent experiments). (E) Cytotoxic activity of CD34+-differentiated NK cells against K562 cells at an E:T ratio of 2:1 (n=1-7 independent experiments). For all the graphs, data are shown as mean±SD; *p<0.05, *p<0.01, ***p<0.001, ****p<0.0001. (F) Correlation between the NKG2D expression (%) and the killing activity (%) in NK cells at day 35 was calculated using Spearman's correlation coefficient and two-tailed p-value (n=21 samples).
CD34^+ HSPCs were differentiated into NK cells in vitro using a protocol adapted from (47). 200,000 CD34^+ cells were resuspended in IMDM supplemented with 20% FBS and 50 μM BME containing 5 ng/mL rhIL-3 (first week only), 10 ng/mL IL-15, 20 ng/mL IL-7, 20 ng/mL SCF, 10 ng/mL Flt3L and 100 U/mL IL2 for 35 days. […]
(§1) Targeted insertion (TI) of MAGT1 cDNA was quantified by digital droplet PCR (ddPCR) using one primer located upstream of the LHA (5′-[…]−3′, SEQ ID NO:42) the second primer (5′-[…]-3′, SEQ ID NO:43) inside the cDNA and a probe (5′-[…]-3′, SEQ ID NO:44).

[3] = tested on: HSPCs; details: HSPCs from patients with CGD, SCD, SCID-X1; cited from earlier work
[4] = tested on: NSGS immunodeficient mice; assay: Transplantation of gene-edited XMEN CD34+ HSPCs into NSGS mice; assay type: in vivo, mouse; details: for post-transplant TI: ddPCR, human CD45+ cells from bone marrow, week 16
Excerpt: (A) Human engraftment measured by the presence of human CD45^+ cells by flow cytometry at week 16 in the peripheral blood, bone marrow, spleen and thymus of NSGS mice transplanted with HD (n=5 mice), untreated (n=12) or gene-edited XMEN CD34^+ HSCs (n=1 (−i53), n=8 (+i53), n=18 (+i53^+ GSE-CS56)). The dotted line indicates the threshold for engraftment at 0.2% hCD45^+ cells in the bone marrow. (B) Percentage of human engraftment (hCD45^+) measured after injection of XMEN HSPCs gene edited with increasing Multiplicity of Infection (MOIs) of AAV, in presence of i53 alone or i53 and GSE-CS56. (C) Immunophenotypic analysis of bone marrow at 16 weeks post-transplant by flow cytometry showing the percentages of CD34^+ cells, myeloid (CD33^+), lymphoid B (CD19^+) and T (CD3^+) after gating on the hCD45^+ population. (D and E) Restoration of NKG2D expression in NK cells from the spleen (D) and CD8^+ T cells from the peripheral blood, spleen and thymus (E) at week 16 post-transplant. For all the graphs, data are shown as mean±SD. (F and G) Targeted insertion quantified by ddPCR in human CD45^+ cells isolated from the bone marrow after gene editing with i53 (orange bar) or with i53 and GSE-CS56 (green bar) (F); or in the lymphoid T (CD3), myeloid (CD33/CD14) and lymphoid B (CD19) cells sorted from the spleen (G).
The use of triple transgenic immunodeficient mice NOD.Cg-Prkd^scid Il2rg^tm1Wjl Tg (NSG-SGM3 or NSGS) expressing human IL3, GM-CSF and SCF cytokines (30) (Stock No: 013062; The Jackson Laboratory) for transplantation studies was approved by NIAID Institutional Animal Care and Use Committee under the animal use protocol LCIM-1E. The conduct of these studies conforms to AAALAC International guidelines and all US federal regulations required for protection of research animals. Newborn mice (0-4 days old) were irradiated at 100 cGy and immediately intrahepatically injected (courtesy of Mara Pavel-Dinu) with 1-1.5×10^6 viable CD34^+ cells per mouse. Peripheral blood from tail vein was analyzed at weeks 12 and 16 after transplantation. At 16 weeks, mice were sacrificed, and bone marrow, spleen and thymus were harvested for analysis of engraftment, sorting or gDNA extraction as indicated. […]
as §1

[5] = tested on: XMEN CD34^+ HSPCs; assay: Viability of gene-edited CD34+ HSPCs by trypan blue exclusion; assay type: cell-based, human; details: day 2 post-EP
Excerpt: (§2) (A) Location of the 10 candidate sgRNAs targeting MAGT1 gene transcription start site (TSS). Each sgRNA (sg) is represented as a 20-bp sequence (light grey or green) associated with the 3-bp PAM sequence (darker color). (B) Evaluation of the percentage of cutting activity by TIDE assay after gDNA extraction from untreated versus Cas9/sgRNA treated HD CD34+ cells at 2-5 days post electroporation, sequencing of Exon 1 and comparison of the sequences using TIDE software (n=1-5 independent experiments). (C) Design of the rAAV6-MAGT1 donor. (D) Molecular analysis showing the percentage of targeted insertion in gene-edited XMEN CD34+ cells using gene editing enhancers as described. gDNA was extracted at 48 h-72 h post-EP and insertion of the MAGT1 cDNA donor was quantified by ddPCR (n=3-11 independent experiments). (E) Viability determined by blue trypan exclusion in untreated Naive and AAV-MAGT1-treated XMEN HSPCs at day 2 post-EP (n=1-7 independent experiments). (F) Representative analysis of the phenotype of CD34+ cells at day 2 post-EP. For all the graphs, data are shown as mean±standard deviation (SD); ANOVA one-way test and Tukey's post hoc multiple comparisons test, *p<0.05, *p<0.01, ***p<0.001, ****p<0.0001.
Cryopreserved CD34^+ HSPCs were thawed (day 0) and cultured in StemSpan SFEM II medium (STEMCELL™ Technologies) supplemented with 100 ng/mL stem cell factor (SCF), Flt3 ligand, thrombopoietin (Peprotech), 0.75 μM of StemRegenin-1 (STEMCELL™ Technologies) and 35 nM of UM171 (STEMCELL™ Technologies) for 2 days (37). […] At 48 h post-EP, the cells were harvested and counted by hemocytometer with trypan blue to determine viability before their use for molecular analysis, phenotypic analysis by flow cytometry, CFU assay, T or NK cell differentiation or cryopreservation for transplant studies.

[6] = tested on: XMEN CD34^+ HSPCs; assay: Targeted insertion (TI) of MAGT1 cDNA by ddPCR in gene-edited CD34+ HSPCs; assay type: cell-based, human; details: ddPCR 48-72 h post-EP, input pre-transplant
Excerpt: as §2, with “For all the graphs, data are shown as mean±standard deviation (SD); ANOVA one-way test and Tukey's post hoc multiple comparisons test, *p<0.05, *p<0.01, ***p<0.001, ****p<0.0001.” left out
as §1

[7] = target: T1, 53BP1 (Homo sapiens, UniProt Q12888); details: blocking 53BP1 tudor domain binding to H4K20me2; cited from earlier work
T1 construct: endogenous in cells
T1 sequence (Q12888 whole entry, the tested form may be a part): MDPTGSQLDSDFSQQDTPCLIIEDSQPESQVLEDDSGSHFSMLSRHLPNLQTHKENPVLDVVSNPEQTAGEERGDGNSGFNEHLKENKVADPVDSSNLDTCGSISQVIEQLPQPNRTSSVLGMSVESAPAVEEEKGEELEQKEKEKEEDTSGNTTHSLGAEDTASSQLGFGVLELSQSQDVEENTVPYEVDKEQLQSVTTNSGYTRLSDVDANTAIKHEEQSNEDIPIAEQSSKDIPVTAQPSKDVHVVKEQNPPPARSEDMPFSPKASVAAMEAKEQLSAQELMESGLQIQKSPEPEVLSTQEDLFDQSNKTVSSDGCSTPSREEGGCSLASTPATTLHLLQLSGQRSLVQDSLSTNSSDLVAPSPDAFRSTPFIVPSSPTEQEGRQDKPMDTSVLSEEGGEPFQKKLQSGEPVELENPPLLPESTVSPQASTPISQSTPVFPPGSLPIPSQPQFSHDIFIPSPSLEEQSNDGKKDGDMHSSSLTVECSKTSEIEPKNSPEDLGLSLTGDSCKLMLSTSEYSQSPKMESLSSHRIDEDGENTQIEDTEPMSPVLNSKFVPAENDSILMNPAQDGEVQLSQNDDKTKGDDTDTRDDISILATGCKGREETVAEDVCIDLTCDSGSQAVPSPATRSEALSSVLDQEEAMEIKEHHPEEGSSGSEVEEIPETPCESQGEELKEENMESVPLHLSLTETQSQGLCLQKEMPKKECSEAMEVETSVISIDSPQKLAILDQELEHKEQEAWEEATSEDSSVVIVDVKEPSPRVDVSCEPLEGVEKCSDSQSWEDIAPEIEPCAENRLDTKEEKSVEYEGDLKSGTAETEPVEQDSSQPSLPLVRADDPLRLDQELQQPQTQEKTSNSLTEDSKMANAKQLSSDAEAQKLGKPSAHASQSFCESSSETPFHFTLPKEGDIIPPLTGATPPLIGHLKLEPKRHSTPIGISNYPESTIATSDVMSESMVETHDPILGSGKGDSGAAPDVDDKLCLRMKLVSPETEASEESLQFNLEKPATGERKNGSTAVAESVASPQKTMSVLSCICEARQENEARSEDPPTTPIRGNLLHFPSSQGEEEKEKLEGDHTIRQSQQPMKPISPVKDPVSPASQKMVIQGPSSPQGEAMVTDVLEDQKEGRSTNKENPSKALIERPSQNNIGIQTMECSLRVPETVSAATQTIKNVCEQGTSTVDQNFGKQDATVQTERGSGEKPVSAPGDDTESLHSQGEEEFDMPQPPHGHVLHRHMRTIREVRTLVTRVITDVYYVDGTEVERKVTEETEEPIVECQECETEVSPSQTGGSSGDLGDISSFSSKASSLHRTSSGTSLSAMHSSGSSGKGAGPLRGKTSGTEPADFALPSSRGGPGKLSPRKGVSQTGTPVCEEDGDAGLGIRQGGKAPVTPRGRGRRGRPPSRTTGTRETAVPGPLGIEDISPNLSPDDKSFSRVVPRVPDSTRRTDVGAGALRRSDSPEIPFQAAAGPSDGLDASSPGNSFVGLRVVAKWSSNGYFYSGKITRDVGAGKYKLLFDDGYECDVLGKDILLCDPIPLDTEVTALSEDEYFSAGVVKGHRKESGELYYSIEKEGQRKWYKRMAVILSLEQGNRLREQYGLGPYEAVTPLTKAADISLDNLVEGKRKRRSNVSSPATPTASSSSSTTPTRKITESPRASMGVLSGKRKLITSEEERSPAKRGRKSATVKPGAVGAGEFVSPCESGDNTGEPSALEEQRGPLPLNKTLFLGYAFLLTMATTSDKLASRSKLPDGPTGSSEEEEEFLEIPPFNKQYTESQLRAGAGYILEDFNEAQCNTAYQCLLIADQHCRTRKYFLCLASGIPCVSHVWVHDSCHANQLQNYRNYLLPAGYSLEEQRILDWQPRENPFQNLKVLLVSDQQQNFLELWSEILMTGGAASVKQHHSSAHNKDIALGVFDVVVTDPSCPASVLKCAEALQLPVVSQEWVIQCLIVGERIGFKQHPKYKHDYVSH

[8] = tested on: CD34^+ HSPCs; assay: CFSE proliferation assay; assay type: cell-based, human; details: CFSE stain day 1 post EP, flow cytometry day 6
Excerpt: (A) Optimization of cutting activity (% indels) of various forms of Cas9 mRNA and at increasing concentration. Commercial Cas9 mRNA (MaxCyte, Mx) is used as control. (B) Evaluation of the glycerol concentration in the EP mix on viability and cutting activity at day 2 post EP. (C) Representative dot plots showing the immunophenotype analysis of HSPCs by flow cytometry at day 2 post EP. (D) Hematopoietic potential evaluated by the CFU assay at day 2 post-EP; Number of CFU colonies were counted after 14 days. (E) Measure of the proliferation index after staining HD HSPCs at day 1 post EP with CFSE dye and analysis of the proliferation by flow cytometry at day 6 post EP.
The following day after EP, CD34^+ cells were stained with CellTrace™ CFSE kit per manufacturer's instructions (ThermoFisher Scientific) and analyzed by flow cytometry 5 days later. Determination of the proliferation index was done using FlowJo software.

Molecule	upregulation of interferon or other cytokines or cellular stress genes, transcriptional repression, toxicity or loss of viability [1]	NKG2D expression in in vitro differentiated NK cells ([2]; day 35 of culture)	molecular TI rates in NK cells ([2]; day 35 of in vitro differentiation, ddPCR)	levels of HDR-mediated TI with AAV donors or gene correction with ssODN donors [3]	post-transplant TI [4]	engraftment of human CD45+ cells in the BM ([4]; week 16, NSGS mice, bone marrow)	viability of GE CD34+ HSPCs [5]	AAV-MAGT1 TI rates (targeted insertion) [6]	increase of repair by HDR [7]	proliferative capacity [8]	percentages of NKG2D-expressing CD8+ T cells ([4]; week 16 post-transplant, PB, spleen, thymus)	viability of GE CD34+ HSPCs ([5]; listed as GSE-CS56 mRNA)
i53 mRNA: pseudouridine-modified mRNA encoding i53, an inhibitor of 53BP1 (ubiquitin variant, SEQ ID NO:6)	not observed any significant upregulation	26%	34%	above 60%	54.5±18.3%	11.03%	decreased after gene editing, independently of i53	50.0±18.2%				
i53 protein: ubiquitin variant (SEQ ID NO:2) of Canny et al. that binds the tandem tudor domain of 53BP1									about 2 fold			
GSE CS-56 mRNA: mRNA encoding a human TP53 genetic suppressor element, a dominant negative deletion mutant of TP53 (nucleic acid, pseudouridine; (1)..(539) U=Pseudouridine) GGGUAAUACAAGCUUGCUUGUUCUUUUUGCAGAAGCUCAGAAUAAACGCUCAACUUUGGCAGCCACCAUGGAUUGUCCUGGGAGAGACCGGCGCACAGAGGAAGAGAAUCUCCGCAAGAAAGGGGAGCCUCACCACGAGCUGCCCCCAGGGAGCACUAAGCGAGCACUGCCCAACAACACCAGCUCCUCUCCCCAGCCAAAGAAGAAACCACUGGAUGGAGAAUAUUUCACCCUUCAGAUCCGUGGGCGUGAGCGCUUCGAGAUGUUCCGAGAGCUGAAUGAGGCCUUGGAACUCAAGGAUGCCCAGGCUGGGAAGGAGCCAGGGGGGAGCAGGGCUCACUCCAGCCACCUGAAGUAGUGAUAUCACUAGUGACUGACUAGGAUCUGGUUACCACUAAACCAGCCUCAAGAACACCCGAAUGGAGUCUCUAAGCUACAUAAUACCAACUUACACUUUACAAAAUGUUGUCCCCCAAAAUGUAGCCAUUCGUAUCUGCUCCUAAUAAAAAGAAAGUUUCUUCACAUUCUGCUAGCUCUAG	not observed any significant upregulation				slightly improved		significantly increased	62.3±18%		better preserved	slightly improved	rescue the cell viability
